The values below come from patent publication US20230023559A1, “ARYLMETHYLENE HETEROCYCLIC COMPOUNDS AS KV1.3 POTASSIUM SHAKER CHANNEL BLOCKERS” (D. E. Shaw Research, LLC, priority 2019, published 2023).

One assay deals with T1, Kv1.3 potassium channel (Homo sapiens, UniProt P22001).
T1 construct: expressed in transfected cells
In words: Kv1.3 potassium channel blocker activity, automated whole-cell patch clamp (Patchliner). In kind it is cell-based. The note with it: CHO-K1 cells stably expressing Kv1.3; whole cell current inhibition; read-out: Kv1.3_IC50. In short, it runs like this: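 CHO-K1 cells stably expressing Kv1.3, automated whole-cell patch clamp. Currents evoked by 100 ms steps from −90 mV holding to +40 mV at 0.1 Hz, sampled at 10 kHz unfiltered, P/4 leak subtraction; peak current inhibition measured, compound incubation ≤10 s between pulse trains.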
A general note: In patch-clamp work, channel activity is measured electrically.

Another assay deals with hERG channel (Homo sapiens, UniProt Q12809). In words: hERG electrophysiology, automated whole-cell patch clamp (Patchliner). (In general: The hERG channel carries a current that helps repolarise heart muscle cells.)
Sequence of hERG channel (Q12809 whole entry): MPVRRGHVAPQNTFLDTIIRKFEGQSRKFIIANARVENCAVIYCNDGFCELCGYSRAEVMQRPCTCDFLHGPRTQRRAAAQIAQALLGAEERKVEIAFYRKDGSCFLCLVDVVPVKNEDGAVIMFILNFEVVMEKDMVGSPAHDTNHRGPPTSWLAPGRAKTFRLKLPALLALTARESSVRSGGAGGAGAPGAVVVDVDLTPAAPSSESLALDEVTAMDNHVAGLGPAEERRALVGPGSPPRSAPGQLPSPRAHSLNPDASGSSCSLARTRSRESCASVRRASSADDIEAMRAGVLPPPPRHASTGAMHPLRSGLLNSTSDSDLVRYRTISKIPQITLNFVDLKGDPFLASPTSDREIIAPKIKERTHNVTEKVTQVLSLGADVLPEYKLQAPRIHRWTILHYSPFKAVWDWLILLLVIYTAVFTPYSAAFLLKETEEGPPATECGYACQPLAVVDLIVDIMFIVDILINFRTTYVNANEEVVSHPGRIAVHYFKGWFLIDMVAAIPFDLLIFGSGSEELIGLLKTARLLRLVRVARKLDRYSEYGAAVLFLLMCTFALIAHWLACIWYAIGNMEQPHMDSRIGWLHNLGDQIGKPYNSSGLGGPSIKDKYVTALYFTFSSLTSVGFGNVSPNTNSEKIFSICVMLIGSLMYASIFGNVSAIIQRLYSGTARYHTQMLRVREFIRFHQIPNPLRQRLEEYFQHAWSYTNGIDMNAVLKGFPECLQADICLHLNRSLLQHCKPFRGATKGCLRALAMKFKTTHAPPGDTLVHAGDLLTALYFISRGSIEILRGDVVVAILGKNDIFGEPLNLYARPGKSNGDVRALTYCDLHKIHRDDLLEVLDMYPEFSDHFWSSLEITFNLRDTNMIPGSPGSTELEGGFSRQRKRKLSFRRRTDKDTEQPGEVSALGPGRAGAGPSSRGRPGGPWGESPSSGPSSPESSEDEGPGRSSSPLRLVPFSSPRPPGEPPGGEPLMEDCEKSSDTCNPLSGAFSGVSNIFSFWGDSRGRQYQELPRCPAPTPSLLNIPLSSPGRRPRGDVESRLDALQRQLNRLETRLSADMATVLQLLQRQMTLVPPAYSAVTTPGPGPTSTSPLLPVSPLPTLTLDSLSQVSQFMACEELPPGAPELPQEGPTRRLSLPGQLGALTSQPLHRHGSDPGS

T1 sequence (P22001 whole entry): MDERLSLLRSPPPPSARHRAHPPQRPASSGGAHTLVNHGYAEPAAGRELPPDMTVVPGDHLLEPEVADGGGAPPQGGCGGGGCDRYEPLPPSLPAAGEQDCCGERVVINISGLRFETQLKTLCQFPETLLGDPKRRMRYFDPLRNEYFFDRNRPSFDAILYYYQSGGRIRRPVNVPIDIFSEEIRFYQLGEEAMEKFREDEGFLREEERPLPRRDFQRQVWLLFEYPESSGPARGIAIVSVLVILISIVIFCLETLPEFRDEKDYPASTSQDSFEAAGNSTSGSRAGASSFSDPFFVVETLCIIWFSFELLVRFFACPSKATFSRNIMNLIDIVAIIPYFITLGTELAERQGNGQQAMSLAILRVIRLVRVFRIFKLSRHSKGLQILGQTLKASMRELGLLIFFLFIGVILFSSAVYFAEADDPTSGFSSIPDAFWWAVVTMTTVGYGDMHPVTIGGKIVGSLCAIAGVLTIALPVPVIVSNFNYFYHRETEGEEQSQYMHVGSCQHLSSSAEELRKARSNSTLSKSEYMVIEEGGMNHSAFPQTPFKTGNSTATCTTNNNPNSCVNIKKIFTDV

One may read the IC50 as the midpoint of a concentration-inhibition curve. Take `N[C@@H](c1cc(Cl)c(Cl)cc1O)C1CCN(C(=O)C2CNC(=O)NC2)CC1` [Compound 275, 5-[4-[(R)-amino(4,5-dichloro-2-hydroxyphenyl)methyl]piperidine-1-carbonyl]-1,3-diazinan-2-one Trifluoroacetic Acid]: the IC50 is less than 500 nM on Kv1.3 potassium channel and more than 30 µM on hERG channel.

For `CC(=O)N1CCC([C@H](N)c2cc(Cl)c(Cl)cc2O)CC1` (single isomer, unassigned) [Compound 19], the 50% inhibitory concentration (IC50) on Kv1.3 potassium channel is less than 10000 nM; at hERG channel it was less than 30 µM.

Turning to `NC(c1cc(Cl)c(Cl)cc1O)C1CC2CCC(C1)N2` (stereo not shown) [Compound 42, 2-[amino(8-azabicyclo[3.2.1]octan-3-yl)methyl]-4,5-dichlorophenol Trifluoroacetic Acid], the IC50 at Kv1.3 potassium channel was less than 10000 nM; against hERG channel, more than 30 µM.

With `N[C@@H](c1cc(Cl)c(Cl)cc1O)C1CCN(C(=O)c2cnc[nH]2)CC1` [Compound 164, 2-[(R)-amino[1-(1H-imidazole-4-carbonyl)piperidin-4-yl]methyl]-4,5-dichlorophenol formic acid], the IC50 at Kv1.3 potassium channel was less than 10000 nM; on hERG channel it was more than 30 µM.

As for `Cc1[nH]ncc1C(=O)N1CCC([C@@H](N)c2cc(Cl)c(Cl)cc2O)CC1` [Compound 153, 2-[(R)-amino[1-(3-methyl-1H-pyrazole-4-carbonyl)piperidin-4-yl]methyl]-4,5-dichlorophenol trifluoroacetic acid], the IC50 at Kv1.3 potassium channel is less than 500 nM; at hERG channel it was more than 30 µM.

On to `CC(=O)N[C@H](c1cc(Cl)c(Cl)cc1O)C1CCNCC1` (single isomer, unassigned) [Compound 10], for which the figures for the half-inhibitory concentration (IC50) on Kv1.3 potassium channel and at hERG channel were less than 10000 nM and more than 30 µM, respectively.

On to `Cn1cc(C(=O)N2CCC([C@@H](N)c3cc(Cl)c(Cl)cc3O)CC2)cn1` [Compound 203, (R)-(4-(amino(4,5-dichloro-2-hydroxyphenyl)methyl)piperidin-1-yl) (1-methyl-1H-pyrazol-4-yl)methanone], for which the IC50 at Kv1.3 potassium channel is less than 500 nM; against hERG channel it was less than 30 µM.

As for `O=C([C@@H]1CCNC1)N1CCC([C@H](O)c2cc(Cl)c(Cl)cc2O)CC1` (single isomer, unassigned) [Compound 115], the IC50 on Kv1.3 potassium channel is less than 500 nM; on hERG channel, more than 30 µM.

In the case of `N[C@@H](c1cc(Cl)c(Cl)cc1O)C1CCN(C(=O)[C@H]2CC[C@H](O)C2)CC1` (single isomer, unassigned; isomer 1) [Compound 177], the half-inhibitory concentration (IC50) at Kv1.3 potassium channel was less than 10000 nM; on hERG channel, less than 30 µM.

For `Cc1cc(O)c([C@H](N)C2CCN(C(=O)[C@H](O)CO)CC2)cc1F` [Compound 283, (2R)-1-[4-[(R)-amino(5-fluoro-2-hydroxy-4-methylphenyl)methyl]piperidin-1-yl]-2,3-dihydroxypropan-1-one], the IC50 on Kv1.3 potassium channel is less than 10000 nM; at hERG channel, more than 30 µM.

Take `Cc1cc(O)c([C@H](N)C2CCN(C(=O)c3cnc4nccn4c3)CC2)cc1Cl` [Compound 240, 2-[(R)-amino(1-[imidazo[1,2-a]pyrimidine-6-carbonyl]piperidin-4-yl)methyl]-4-chloro-5-methylphenol Trifluoroacetic Acid]: the IC50 on Kv1.3 potassium channel was less than 500 nM; against hERG channel, more than 30 µM.

Take `Nc1nnc(C(=O)N2CCC([C@@H](N)c3cc(Cl)c(Cl)cc3O)CC2)o1` [Compound 155, 2-[(R)-amino[1-(5-amino-1,3,4-oxadiazole-2-carbonyl)piperidin-4-yl]methyl]-4,5-dichlorophenol trifluoroacetic acid]: the IC50 at Kv1.3 potassium channel is less than 10000 nM; on hERG channel, more than 30 µM.

Take `Nc1nc(N2CCC([C@@H](N)c3cc(Cl)c(Cl)cc3O)CC2)no1` [Compound 183, 2-[(R)-amino[1-(5-amino-1,2,4-oxadiazol-3-yl)piperidin-4-yl]methyl]-4,5-dichlorophenol]: the IC50 on Kv1.3 potassium channel is less than 500 nM; on hERG channel, less than 30 µM.

For the compound `N[C@@H](c1cc(Cl)c(Cl)cc1O)C1CCN(C(=O)C2CNC(=O)CO2)CC1` (stereo partly drawn) [Compound 231, 6-[4-[(R)-amino(4,5-dichloro-2-hydroxyphenyl)methyl]piperidine-1-carbonyl]morpholin-3-one], the IC50 was less than 500 nM at Kv1.3 potassium channel and more than 30 µM on hERG channel.

`N[C@@H](c1cc(Cl)c(Cl)cc1O)C1CCN(C(=O)N2CC(O)(CO)C2)CC1` [Compound 220, 1-[4-[(R)-amino(4,5-dichloro-2-hydroxyphenyl)methyl]piperidine-1-carbonyl]-3-(hydroxymethyl)azetidin-3-ol]: the IC50 was less than 500 nM at Kv1.3 potassium channel and more than 30 µM on hERG channel.

On to `CCc1cc(O)c([C@H](N)C2CCN(C(=O)[C@H](O)CO)CC2)cc1Cl` [Compound 292, (2R)-1-[4-[(R)-amino(5-chloro-4-ethyl-2-hydroxyphenyl)methyl]piperidin-1-yl]-2,3-dihydroxypropan-1-one Trifluoroacetic Acid], for which the results for the IC50 at Kv1.3 potassium channel and against hERG channel were less than 500 nM and more than 30 µM, respectively.

In the case of `NC(c1cc(Cl)c(Cl)cc1O)C1CNC1` (stereo not shown) [Compound 52, 2-[amino(azetidin-3-yl)methyl]-4,5-dichlorophenol Trifluoroacetic Acid], the IC50 at Kv1.3 potassium channel is less than 10000 nM; against hERG channel, more than 30 µM.

For the compound `N[C@@H](c1cc(Cl)c(Cl)cc1O)C1CCN(C(=O)[C@H]2CCN2)CC1` [Compound 95, (4-((R)-amino(4,5-dichloro-2-hydroxyphenyl)methyl)piperidin-1-yl)((R)-azetidin-2-yl)methanone], the figures for the IC50 on Kv1.3 potassium channel and at hERG channel were less than 500 nM and more than 30 µM, respectively.

As to `C[C@@H]1C[C@@H]([C@@H](N)c2cc(Cl)c(Cl)cc2O)CCN1C(=O)[C@H](O)CO` [Compound 327, (2R)-1-[(2R,4S)-4-[(R)-amino(4,5-dichloro-2-hydroxyphenyl)methyl]-2-methylpiperidin-1-yl]-2,3-dihydroxypropan-1-one Trifluoroacetic Acid], the results for the IC50 on Kv1.3 potassium channel and on hERG channel were less than 10000 nM and more than 30 µM, respectively.

With `N[C@@H](c1cc(Cl)c(Cl)cc1O)C1CCN(C(=O)C2CCC(=O)NC2)CC1` (stereo partly drawn) [Compound 299, 5-[4-[(R)-amino(4,5-dichloro-2-hydroxyphenyl)methyl]piperidine-1-carbonyl]piperidin-2-one Trifluoroacetic Acid], the IC50 was less than 500 nM at Kv1.3 potassium channel and more than 30 µM against hERG channel.

For the compound `C[C@@H](O)[C@@H](N)C(=O)N1CCC([C@@H](N)c2cc(Cl)c(Cl)cc2O)CC1` [Compound 199, (2R,3R)-2-amino-1-[4-[(R)-amino(4,5-dichloro-2-hydroxyphenyl)methyl]piperidin-1-yl]-3-hydroxybutan-1-one trifluoroacetic acid], the IC50 was less than 500 nM at Kv1.3 potassium channel and more than 30 µM on hERG channel.

As to `Cn1cc(C(=O)N2CCC([C@@H](N)c3cc(Cl)c(Cl)cc3O)CC2)ncc1=O` [Compound 298, 5-[4-[(R)-amino(4,5-dichloro-2-hydroxyphenyl)methyl]piperidine-1-carbonyl]-1-methylpyrazin-2-one Trifluoroacetic Acid], the values for the IC50 at Kv1.3 potassium channel and at hERG channel were less than 500 nM and less than 30 µM, respectively.

As for `N[C@@H](CO)C(=O)N1CCC([C@@H](N)c2cc(Cl)c(Cl)cc2O)CC1` [Compound 167, (2S)-2-amino-1-[4-[(R)-amino(4,5-dichloro-2-hydroxyphenyl)methyl]piperidin-1-yl]-3-hydroxypropan-1-one], the results for the IC50 at Kv1.3 potassium channel and against hERG channel were less than 500 nM and more than 30 µM, respectively.
